Source: US20210228523A1, “MODULATORS OF SESTRIN-GATOR2 INTERACTION AND USES THEREOF” (Navitor Pharmaceuticals, Inc., priority 2017, published 2021)

Legend:
mTORC1 signaling pathway = test: Western blot of mTORC1 substrates in crude synaptosomes from rat prefrontal cortex; format: in vivo; settings: Example B, 1 hr after administration
Experimental: Study Design. Forty-eight (48) male Sprague Dawley rats weighing between 175 and 200 g were randomized into 8 study groups (n=6/group), following a 5-day acclimation period. On study day 0, rats in Groups 3 and 7 received a single dose of Sal while Groups 4 and 8 received a single dose of Ket (10 mg/kg) each by i.p. injection. The rats in Groups 1 and 5 received a single dose of Veh while Groups 2 and 6 received a single dose of NV-5138 (160 mg/kg) each by oral gavage. One hour after dosing, rats in Groups 1-4 were sacrificed by conscious decapitation and followed by collection of the PFC. Crude synaptosomes were prepared from the PFC and three mTORC1 substrates, pmTOR, pp70S6K and p4E-BP1, and corresponding total protein loading controls (mTOR, p70S6K, and GAPDH) were quantitated by WB. Twenty-four hours after dosing, rats in Groups 5-8 were sacrificed by conscious decapitation and collection of the PFC. Crude synaptosomes were prepared from the PFC and the synaptic proteins (GluR1 and PSD95), as well as the total protein loading control (GAPDH), were quantitated by WB.
Formulation of Ket and NV-5138 for Administration. Ket (Sigma, cat #K1884) was dissolved in Sal at a concentration of 10 mg/mL. A volume of 1 mL/kg was injected i.p. NV-5138 (Navitor, Lot #06) was prepared by dissolving in Veh at a concentration of 50 mg/mL. The dosing volume based on the weight of the animal (3.2 mL/kg) was administered by oral gavage. Test articles were prepared the day of dosing.
Prefrontal Cortex Synaptosome Preparations. The brain was dissected from rats in all groups (n=6/group) and rinsed in PBS. The PFC was collected as shown in FIG. 6 and homogenized at 4° C. in homogenization buffer (0.32 M sucrose, 20 mM HEPES at pH 7.4, 1 mM EDTA, 5 mM NaF, 1 mM NaVO3 and protease inhibitor cocktail (Roche; Ser. No. 19/543,200)). The homogenate was centrifuged for 10 min at 2,800 rpm at 4° C. after which the supernatant was removed and re-centrifuged at 12,000 rpm for 10 min at 4° C. The resulting pellet containing crude synaptosomes was re-suspended in Lysis buffer (50 mM Tris-HCl (pH 7.5), 150 mM NaCl, 1% Triton X-100, 0.1% SDS, 2 mM, EDTA, 1 mM NaVO3, 5 mM NaF and protease inhibitor cocktail) and sonicated on ice for 20 s at 50% amplitude. The protein concentration was determined by Bradford assay and all samples were mixed with loading buffer (60 mM Tris-HCl pH 6.8, 20 mM DTT, 2% SDS, 10% glycerol, 5% β-mercaptoethanol and 0.01% Bromophenol blue) and stored at -20° C. until WB analysis.
Western Blot Analysis: Western blot analysis for GluR1, PSD95 and GAPDH was performed as previously described. Briefly, synaptosomes preparations (15 μg total protein) were loaded into 10-15% SDS PAGE gel for electrophoresis and transferred to a polyvinylidene difluoride (PVDF) membrane in transfer buffer (10× premixed electrophoresis buffer contains 25 mM Tris, 192 mM glycine, pH 8.3; Bio-Rad). […] After final three washes with PBS-T buffer, bands were detected using enhanced chemiluminescence. […]

Male Sprague Dawley rats = test: Female Urine Sniffing Test (FUST); format: in vivo, rat; settings: Example A, 24 hrs post-dose; for time spent sniffing female urine (FUST): mean±SEM, n=8
Experimental: Behavioral Analysis Using the Female Urine Sniffing Test (FUST): The FUST was conducted according to published procedures (Malkesman, O. et al, Biol Psychiatry 67(9): 864-71 (2010)), 24 hr post-dosing. Briefly, rats were habituated for 60 min to a cotton swab dipped in tap water in their home cage. Next, rats were exposed to a 2nd cotton swab dipped in tap water and 45 min later they were exposed to a 3rd cotton swab infused with fresh rat urine from 11 to 14-week-old female rats in estrus. The total time (s) spent sniffing the cotton-tipped applicator was quantitated over 5 min for each animal.
Study Design. Thirty-two (32) male Sprague Dawley Male rats weighing between 175 and 200 g were randomized into 4 study groups (n=8/treatment group), following a 5-day acclimation period. On study day 0, rats received a single dose of either saline (Sal) or ketamine (Ket) in Groups 1 and 2, respectively, by intraperitoneal injection (i.p.). The rats in Group 3 and 4 received a single dose of the NV-5138 vehicle (Veh, 0.5% Methylcellulose/0.1% Tween-80) or NV-5138 (160 mg/kg), respectively, by oral gavage. All rats were subjected to the FUST on day 1, 24 hrs after dosing. On day 2, 48 hrs after dosing, the LMA of all rats was measured in an open field. Rats were then fasted for 20 hrs and subjected to the NSFT, 72 hrs post-dose.
Preparation of Test Articles. Ket (Sigma, cat #K1884) was dissolved in Sal at a concentration of 10 mg/mL. A volume of 1 ml/kg of Sal or Ket was injected i.p. for Groups 1 and 2, respectively. NV-5138 (Navitor, lot #06) was prepared by dissolving in Veh (0.5% methylcellulose/0.1% Tween-80) at a concentration of 50 mg/mL. The dosing volume based on the weight of the animal (3.2 mL/kg) of Veh or NV-5138 was administered by oral gavage to study animals in Groups 3 and 4, respectively. Test articles were prepared the day of dosing.

SMILES | levels of p4E-BP1 in crude PFC synaptosomes (mTORC1 signaling pathway; NV-5138 160 mg/kg oral) | levels of pmTOR in crude PFC synaptosomes (mTORC1 signaling pathway; NV-5138 160 mg/kg oral) | levels of pp70S6K in crude PFC synaptosomes (mTORC1 signaling pathway; NV-5138 160 mg/kg oral) | time spent sniffing female urine (FUST) (Male Sprague Dawley rats; NV-5138 160 mg/kg oral single dose) [s] | increase in time spent sniffing female urine vs Veh (Male Sprague Dawley rats; NV-5138 160 mg/kg oral single dose, p<0.01) [fold] | levels of p4E-BP1 in crude PFC synaptosomes (mTORC1 signaling pathway; Ket 10 mg/kg i.p.) | levels of pmTOR in crude PFC synaptosomes (mTORC1 signaling pathway; Ket 10 mg/kg i.p.) | time spent sniffing female urine (FUST) (Male Sprague Dawley rats; Ket 10 mg/kg i.p. single dose) [s] | increase in time spent sniffing female urine vs Sal (Male Sprague Dawley rats; Ket 10 mg/kg i.p. single dose, p<0.05) [fold]
CC(C)(C[C@H](N)C(=O)O)C(F)F [NV-5138] | significantly increased | significantly increased | significantly increased | 33.8 ± 2.9 | 2.9 | – | – | – | –
CNC1(c2ccccc2Cl)CCCCC1=O (stereo not drawn) [Ket, ketamine, reference compound] | – | – | – | – | – | significantly increased | significantly increased | 36.5 ± 7.9 | 2.1
